Experimental data as given in paper PMC10835127, “Viruses traverse the human proteome through peptide interfaces that can be biomimetically leveraged for drug discovery” (Proceedings of the National Academy of Sciences of the …, 2024).
Read-outs that look alike come from different tables or passages of the source.

What was measured:
[1] = system: HIV1 strain NL4-3; assay type: cell-based; details: normalized mean of HIV1 replication readout
[2] = system: HCV replicon; assay type: cell-based; details: for HCV Norm MEAN: normalized mean of HCV replicon readout
[3] = system: F. novicida (strain U112); assay type: cell-based
[4] = system: influenza A H1N1 virus; details: 48 hr post-treatment, A549
[5] = system: EBV; details: normalized mean of EBV replication readout

CPEP61: peptide of the viral peptide library; sequence page not shown (KRRKSGAKRR)
HIV1 Norm MEAN [1]: 1.461 | HCV Norm MEAN [2]: 0.1619 | Francisella novicida Norm AUC [3]: 0.6493 | Neuraminidase activity normalized to vehicle ([4]; 200 µM peptide): 0,867 | Neuraminidase activity normalized to vehicle ([4]; 0,823 µM peptide): 1,0166 | Neuraminidase activity normalized to vehicle ([4]; 22,2 µM peptide): 1,0577 | Neuraminidase activity normalized to vehicle ([4]; 2,4691 µM peptide): 1,0813 | Neuraminidase activity normalized to vehicle ([4]; 7,4074 µM peptide): 0,9769 | Neuraminidase activity normalized to vehicle ([4]; 66,6667 µM peptide): 1,1022 | EBV Norm MEAN [5]: 3.372

DKELYPLTSLRSLFG [CPEP65]
HIV1 Norm MEAN ([1]; peptide screen): 0.2888 | HCV Norm MEAN ([2]; peptide screen): 0.8278 | Francisella novicida Norm AUC [3]: 0.6089 | Neuraminidase activity normalized to vehicle ([4]; 200 µM peptide): 0,356 | Neuraminidase activity normalized to vehicle ([4]; 0,823 µM peptide): 0,8623 | Neuraminidase activity normalized to vehicle ([4]; 22,2 µM peptide): 1,0442 | Neuraminidase activity normalized to vehicle ([4]; 2,4691 µM peptide): 0,9706 | Neuraminidase activity normalized to vehicle ([4]; 7,4074 µM peptide): 0,9802 | Neuraminidase activity normalized to vehicle ([4]; 66,6667 µM peptide): 1,0044 | EBV Norm MEAN ([5]; peptide screen): 0.6954

CPEP102: peptide of the viral peptide library; sequence page not shown (PHGPVQLSYYD)
HIV1 Norm MEAN [1]: 1.958 | HCV Norm MEAN [2]: 0.8145 | Francisella novicida Norm AUC [3]: 0.8816 | Neuraminidase activity normalized to vehicle ([4]; 200 µM peptide): 0,8099 | Neuraminidase activity normalized to vehicle ([4]; 0,823 µM peptide): 0,6759 | Neuraminidase activity normalized to vehicle ([4]; 22,2 µM peptide): 0,942 | Neuraminidase activity normalized to vehicle ([4]; 2,4691 µM peptide): 1,0283 | Neuraminidase activity normalized to vehicle ([4]; 7,4074 µM peptide): 0,877 | Neuraminidase activity normalized to vehicle ([4]; 66,6667 µM peptide): 1,0125 | EBV Norm MEAN [5]: 1.648

TRVESENKVVILDSFD [CPEP93]
HIV1 Norm MEAN ([1]; peptide screen): 10.6718 | HCV Norm MEAN ([2]; peptide screen): 0.8288 | Francisella novicida Norm AUC [3]: 0.7068 | Neuraminidase activity normalized to vehicle ([4]; 200 µM peptide): 1,1147 | Neuraminidase activity normalized to vehicle ([4]; 0,823 µM peptide): 1,1071 | Neuraminidase activity normalized to vehicle ([4]; 22,2 µM peptide): 1,1929 | Neuraminidase activity normalized to vehicle ([4]; 2,4691 µM peptide): 1,0829 | Neuraminidase activity normalized to vehicle ([4]; 7,4074 µM peptide): 1,1322 | Neuraminidase activity normalized to vehicle ([4]; 66,6667 µM peptide): 1,0883 | EBV Norm MEAN ([5]; peptide screen): 1.069

CPEP126: peptide of the viral peptide library; sequence page not shown (TQNLYPDLSEIKK)
HIV1 Norm MEAN ([1]; peptide screen): 0.6553 | HCV Norm MEAN ([2]; peptide screen): 0.4853 | Francisella novicida Norm AUC [3]: 1.192 | Neuraminidase activity normalized to vehicle ([4]; 200 µM peptide): 0,8408 | Neuraminidase activity normalized to vehicle ([4]; 0,823 µM peptide): 0,9498 | Neuraminidase activity normalized to vehicle ([4]; 22,2 µM peptide): 0,8904 | Neuraminidase activity normalized to vehicle ([4]; 2,4691 µM peptide): 0,9431 | Neuraminidase activity normalized to vehicle ([4]; 7,4074 µM peptide): 0,8627 | Neuraminidase activity normalized to vehicle ([4]; 66,6667 µM peptide): 0,9364 | EBV Norm MEAN ([5]; peptide screen): 0.8026

PYQLT [CPEP58]
HIV1 Norm MEAN [1]: 1.506 | HCV Norm MEAN [2]: 0.1961 | Francisella novicida Norm AUC [3]: 0.486 | Neuraminidase activity normalized to vehicle ([4]; 200 µM peptide): 0,7155 | Neuraminidase activity normalized to vehicle ([4]; 0,823 µM peptide): 0,7664 | Neuraminidase activity normalized to vehicle ([4]; 22,2 µM peptide): 0,8252 | Neuraminidase activity normalized to vehicle ([4]; 2,4691 µM peptide): 0,7115 | Neuraminidase activity normalized to vehicle ([4]; 7,4074 µM peptide): 0,806 | Neuraminidase activity normalized to vehicle ([4]; 66,6667 µM peptide): 0,8444 | EBV Norm MEAN [5]: 0.8535

FVKSNWGLF [CPEP101]
HIV1 Norm MEAN [1]: 0.9706 | HCV Norm MEAN [2]: 0.5497 | Francisella novicida Norm AUC [3]: 1.6479 | Neuraminidase activity normalized to vehicle ([4]; 200 µM peptide): 0,7463 | Neuraminidase activity normalized to vehicle ([4]; 0,823 µM peptide): 1,0136 | Neuraminidase activity normalized to vehicle ([4]; 22,2 µM peptide): 0,9003 | Neuraminidase activity normalized to vehicle ([4]; 2,4691 µM peptide): 0,9061 | Neuraminidase activity normalized to vehicle ([4]; 7,4074 µM peptide): 0,9057 | Neuraminidase activity normalized to vehicle ([4]; 66,6667 µM peptide): 0,8948 | EBV Norm MEAN [5]: 1.466

RPEPTAPPEE [CPEP116]
HIV1 Norm MEAN [1]: 0.3699 | HCV Norm MEAN [2]: 1.054 | Francisella novicida Norm AUC [3]: 0.6494 | Neuraminidase activity normalized to vehicle ([4]; 200 µM peptide): 0,7624 | Neuraminidase activity normalized to vehicle ([4]; 0,823 µM peptide): 0,9564 | Neuraminidase activity normalized to vehicle ([4]; 22,2 µM peptide): 0,683 | Neuraminidase activity normalized to vehicle ([4]; 2,4691 µM peptide): 0,8677 | Neuraminidase activity normalized to vehicle ([4]; 7,4074 µM peptide): 0,7015 | Neuraminidase activity normalized to vehicle ([4]; 66,6667 µM peptide): 0,6644 | EBV Norm MEAN [5]: 0.4152

LQQLL [CPEP130]
HIV1 Norm MEAN [1]: 1.886 | HCV Norm MEAN [2]: 0.1679 | Francisella novicida Norm AUC [3]: 0.7754 | Neuraminidase activity normalized to vehicle ([4]; 200 µM peptide): 1,0055 | Neuraminidase activity normalized to vehicle ([4]; 0,823 µM peptide): 0,8445 | Neuraminidase activity normalized to vehicle ([4]; 22,2 µM peptide): 0,933 | Neuraminidase activity normalized to vehicle ([4]; 2,4691 µM peptide): 0,8513 | Neuraminidase activity normalized to vehicle ([4]; 7,4074 µM peptide): 0,8415 | Neuraminidase activity normalized to vehicle ([4]; 66,6667 µM peptide): 1,0245 | EBV Norm MEAN [5]: 1.354

CPEP64: peptide of the viral peptide library; sequence page not shown (CCFHCQVCFIT)
HIV1 Norm MEAN [1]: 8.487 | HCV Norm MEAN [2]: 1.72 | Francisella novicida Norm AUC [3]: 0.8687 | Neuraminidase activity normalized to vehicle ([4]; 200 µM peptide): 0,0708 | Neuraminidase activity normalized to vehicle ([4]; 0,823 µM peptide): 0,8369 | Neuraminidase activity normalized to vehicle ([4]; 22,2 µM peptide): 0,1905 | Neuraminidase activity normalized to vehicle ([4]; 2,4691 µM peptide): 0,9654 | Neuraminidase activity normalized to vehicle ([4]; 7,4074 µM peptide): 0,5226 | Neuraminidase activity normalized to vehicle ([4]; 66,6667 µM peptide): 0,0909 | EBV Norm MEAN [5]: 0.8807

CPEP52: peptide of the viral peptide library; sequence page not shown (CFITKALGISYG)
HIV1 Norm MEAN [1]: 5.563 | HCV Norm MEAN [2]: 0.3655 | Francisella novicida Norm AUC [3]: 2.021 | Neuraminidase activity normalized to vehicle ([4]; 200 µM peptide): 0,1673 | Neuraminidase activity normalized to vehicle ([4]; 0,823 µM peptide): 0,9576 | Neuraminidase activity normalized to vehicle ([4]; 22,2 µM peptide): 1,0146 | Neuraminidase activity normalized to vehicle ([4]; 2,4691 µM peptide): 1,1215 | Neuraminidase activity normalized to vehicle ([4]; 7,4074 µM peptide): 0,9392 | Neuraminidase activity normalized to vehicle ([4]; 66,6667 µM peptide): 0,5319 | EBV Norm MEAN [5]: 2.225

IVISDSEEE [CPEP121]
HIV1 Norm MEAN [1]: 0.9208 | HCV Norm MEAN [2]: 0.7416 | Francisella novicida Norm AUC [3]: 1.126 | Neuraminidase activity normalized to vehicle ([4]; 200 µM peptide): 1,0697 | Neuraminidase activity normalized to vehicle ([4]; 0,823 µM peptide): 1,0507 | Neuraminidase activity normalized to vehicle ([4]; 22,2 µM peptide): 1,0096 | Neuraminidase activity normalized to vehicle ([4]; 2,4691 µM peptide): 1,0097 | Neuraminidase activity normalized to vehicle ([4]; 7,4074 µM peptide): 0,9639 | Neuraminidase activity normalized to vehicle ([4]; 66,6667 µM peptide): 1,0552 | EBV Norm MEAN [5]: 1.138

CPEP135: peptide of the viral peptide library; sequence page not shown (KGHRGSHTMNGH)
HIV1 Norm MEAN [1]: 0.5949 | HCV Norm MEAN [2]: 0.5732 | Francisella novicida Norm AUC [3]: 1.216 | Neuraminidase activity normalized to vehicle ([4]; 200 µM peptide): 0,865 | Neuraminidase activity normalized to vehicle ([4]; 0,823 µM peptide): 0,9322 | Neuraminidase activity normalized to vehicle ([4]; 22,2 µM peptide): 0,9598 | Neuraminidase activity normalized to vehicle ([4]; 2,4691 µM peptide): 0,9359 | Neuraminidase activity normalized to vehicle ([4]; 7,4074 µM peptide): 0,8333 | Neuraminidase activity normalized to vehicle ([4]; 66,6667 µM peptide): 0,9822 | EBV Norm MEAN [5]: 0.8556

LRKRRKRL [CPEP145]
HIV1 Norm MEAN [1]: 1.45 | activity in HCV screen (in words) ([2]; 20 µM peptide, Huh7, replicon luciferase): inhibition of RNA | HCV Norm MEAN [2]: 0.1172 | Francisella novicida Norm AUC [3]: 1.33 | Neuraminidase activity normalized to vehicle ([4]; 200 µM peptide): 0,7911 | Neuraminidase activity normalized to vehicle ([4]; 0,823 µM peptide): 0,8361 | Neuraminidase activity normalized to vehicle ([4]; 22,2 µM peptide): 0,839 | Neuraminidase activity normalized to vehicle ([4]; 2,4691 µM peptide): 0,7253 | Neuraminidase activity normalized to vehicle ([4]; 7,4074 µM peptide): 0,7634 | Neuraminidase activity normalized to vehicle ([4]; 66,6667 µM peptide): 0,9146 | EBV Norm MEAN [5]: 2.86

ELLSGLQEWL [CPEP85]
HIV1 Norm MEAN [1]: 0.5625 | HCV Norm MEAN [2]: 0.7957 | Francisella novicida Norm AUC [3]: 1.212 | Neuraminidase activity normalized to vehicle ([4]; 200 µM peptide): 0,9118 | Neuraminidase activity normalized to vehicle ([4]; 0,823 µM peptide): 0,9858 | Neuraminidase activity normalized to vehicle ([4]; 22,2 µM peptide): 0,8356 | Neuraminidase activity normalized to vehicle ([4]; 2,4691 µM peptide): 0,9371 | Neuraminidase activity normalized to vehicle ([4]; 7,4074 µM peptide): 0,8683 | Neuraminidase activity normalized to vehicle ([4]; 66,6667 µM peptide): 0,8029 | EBV Norm MEAN [5]: 1.35
